Results reported in ChEMBL document CHEMBL3414561, “Discovery of 4'-chloromethyl-2'-deoxy-3',5'-di-O-isobutyryl-2'-fluorocytidine (ALS-8176), a first-in-class RSV polymerase inhibitor for treatment of human respiratory syncytial virus infection” (J Med Chem, 2015).

Experiments:
[1] = tested on: Respiratory syncytial virus; test: Antiviral activity against Respiratory syncytial virus subgenomic replicon system in 395 HeLa cells assessed as reduction in viral replication after 7 days by renilla luciferase assay; assay type: functional, organism-based; conditions: human respiratory syncytial virus, 168 h
[2] = Cytotoxicity against human HeLa cells assessed as cell viability by CellTiter-Glo luminescent assay; assay type: cell-based
[3] = Drug uptake in Non-naive cynomolgus monkey assessed as lung NMP level at 5 mg/kg, po 4'-chloromethyl-2'-deoxy-2'-fluorocytidine equivalent dose after 12 hrs; assay type: ADME, organism-based, Macaca fascicularis; set-up: dose 5 mg/kg, route oral; conditions: in vivo, read-out: Drug uptake
[4] = Drug uptake in Non-naive cynomolgus monkey assessed as lung NTP level at 5 mg/kg, po 4'-chloromethyl-2'-deoxy-2'-fluorocytidine equivalent dose after 12 hrs; assay type: ADME, organism-based, Macaca fascicularis; set-up: dose 5 mg/kg, route oral; conditions: in vivo, read-out: Drug uptake
A549 = test: Drug metabolism in human A549 cells assessed as nucleotide 5'-triphosphate level measured per million cells at 50 uM after 1 to 5 days by LC/MS/MS analysis; assay type: ADME, cell-based; conditions: a549, 50 µM
[5] = Drug metabolism in human Hep2 cells assessed as nucleotide 5'-triphosphate level measured per million cells at 50 uM after 1 to 5 days by LC/MS/MS analysis; assay type: ADME, cell-based; conditions: hep-2, 50 µM
[6] = Drug metabolism in human normal bronchial epithelial cells assessed as nucleotide 5'-triphosphate level measured per million cells at 50 uM after 1 to 5 days by LC/MS/MS analysis; assay type: ADME, cell-based; conditions: epithelial cell
[7] = Drug metabolism in human nasal cells assessed as nucleotide 5'-triphosphate level measured per million cells at 50 uM after 1 to 5 days by LC/MS/MS analysis; assay type: ADME, cell-based
[8] = Half life in male syrian golden hamster at 5 mg/kg, iv; assay type: ADME, organism-based, Mesocricetus auratus; set-up: dose 5 mg/kg, route intravenous; conditions: in vivo
[9] = Clearance in male syrian golden hamster at 5 mg/kg, iv; assay type: ADME, organism-based, Mesocricetus auratus; set-up: dose 5 mg/kg, route intravenous; conditions: in vivo
[10] = Volume of distribution at steady state in male syrian golden hamster at 5 mg/kg, iv; assay type: ADME, organism-based, Mesocricetus auratus; set-up: dose 5 mg/kg, route intravenous; conditions: in vivo, read-out: Vdss
[11] = AUCinf in male syrian golden hamster at 5 mg/kg, iv; assay type: ADME, organism-based, Mesocricetus auratus; set-up: time infinity, dose 5 mg/kg, route intravenous; conditions: plasma
Syrian golden hamster = test: Ratio of uridine metabolite to parent cytidine in male syrian golden hamster at 5 mg/kg, iv; assay type: ADME, organism-based, Mesocricetus auratus; set-up: dose 5 mg/kg, route intravenous; conditions: in vivo
[12] = Drug uptake in male syrian golden hamster assessed as lung NMP level at 5 mg/kg, iv after 1 hr; assay type: ADME, organism-based, Mesocricetus auratus; set-up: dose 5 mg/kg, route intravenous; conditions: in vivo, read-out: Drug uptake
[13] = Drug uptake in male syrian golden hamster assessed as lung NTP level at 5 mg/kg, iv after 1 hr; assay type: ADME, organism-based, Mesocricetus auratus; set-up: dose 5 mg/kg, route intravenous; conditions: in vivo, read-out: Drug uptake
[14] = Half life in Sprague-Dawley rat at 5 mg/kg, iv; assay type: ADME, organism-based; set-up: dose 5 mg/kg, route intravenous; conditions: in vivo
[15] = Clearance in Sprague-Dawley rat at 5 mg/kg, iv; assay type: ADME, organism-based; set-up: dose 5 mg/kg, route intravenous; conditions: in vivo
[16] = Volume of distribution at steady state in Sprague-Dawley rat at 5 mg/kg, iv; assay type: ADME, organism-based; set-up: dose 5 mg/kg, route intravenous; conditions: in vivo, read-out: Vdss
[17] = AUCinf in Sprague-Dawley rat at 5 mg/kg, iv; assay type: ADME, organism-based; set-up: time infinity, dose 5 mg/kg, route intravenous; conditions: plasma
[18] = Half life in Non-naive cynomolgus monkey at 5 mg/kg, iv; assay type: ADME, organism-based, Macaca fascicularis; set-up: dose 5 mg/kg, route intravenous; conditions: in vivo
[19] = Clearance in Non-naive cynomolgus monkey at 5 mg/kg, iv; assay type: ADME, organism-based, Macaca fascicularis; set-up: dose 5 mg/kg, route intravenous; conditions: in vivo
[20] = Volume of distribution at steady state in Non-naive cynomolgus monkey at 5 mg/kg, iv; assay type: ADME, organism-based, Macaca fascicularis; set-up: dose 5 mg/kg, route intravenous; conditions: in vivo, read-out: Vdss
[21] = AUCinf in Non-naive cynomolgus monkey at 5 mg/kg, iv; assay type: ADME, organism-based, Macaca fascicularis; set-up: time infinity, dose 5 mg/kg, route intravenous; conditions: plasma
Cynomolgus monkey = test: Ratio of uridine metabolite to parent cytidine in Non-naive cynomolgus monkey at 5 mg/kg, iv; assay type: ADME, organism-based, Macaca fascicularis; set-up: dose 5 mg/kg, route intravenous; conditions: in vivo
[22] = Drug uptake in Non-naive cynomolgus monkey assessed as lung NMP level at 5 mg/kg, iv after 1 hr; assay type: ADME, organism-based, Macaca fascicularis; set-up: dose 5 mg/kg, route intravenous; conditions: in vivo, read-out: Drug uptake
[23] = Drug uptake in Non-naive cynomolgus monkey assessed as lung NTP level at 5 mg/kg, iv after 1 hr; assay type: ADME, organism-based, Macaca fascicularis; set-up: dose 5 mg/kg, route intravenous; conditions: in vivo, read-out: Drug uptake
[24] = tested on: Respiratory syncytial virus; test: Inhibition of Respiratory syncytial virus RNA polymerase in crude RSV RNP complex assessed as inhibition of [33P]CMP incorporation into RNA chain at 10 uM
[25] = tested on: Respiratory syncytial virus; test: Inhibition of Respiratory syncytial virus RNA polymerase in crude RSV RNP complex assessed as inhibition of [33P]CMP incorporation into RNA chain at 30 uM

| EC50 [1] [nM] | concentration [3] [nM] | concentration [4] [nM] | Drug metabolism (A549) [pmol] | Drug metabolism [5] [pmol] | Drug metabolism [6] [pmol] | Drug metabolism [7] [pmol] | half-life [8] [h] | clearance [9] [mL/min/kg] | Vd [10] [L/kg] | AUC(0-inf) [11] [ng·h/mL] | Ratio (Syrian golden hamster) | concentration [12] [nM] | concentration [13] [nM] | half-life [14] [h] | clearance [15] [mL/min/kg] | Vd [16] [L/kg] | AUC(0-inf) [17] [ng·h/mL] | half-life [18] [h] | SMILES | CC50 [2] [nM] | also measured |
| --- | --- | --- | --- | --- | --- | --- | --- | --- | --- | --- | --- | --- | --- | --- | --- | --- | --- | --- | --- | --- | --- |
| 60 | 861 | 915 | – | – | – | – | – | – | – | – | – | – | – | – | – | – | – | – | CC(C)[C@H](N)C(=O)O[C@H]1[C@@H](F)[C@H](n2ccc(N)nc2=O)O[C@@]1(CO)CCl | > 100000 | – |
| 420 | – | – | 85.1 | 119 | 489 | 140 | 1.23 | 34.1 | 1.07 | 2460 | 0.0005 | 144 | 42.2 | 1.34 | 25.5 | 1.67 | 3140 | 7.52 | CC[C@]1(CO)O[C@@H](n2ccc(N)nc2=O)[C@H](F)[C@@H]1O | > 100000 | clearance [19]: 19.2 mL/min/kg; Vd [20]: 1.8 L/kg; AUC(0-inf) [21]: 4360 ng·h/mL; Ratio (Cynomolgus monkey): 0.67; concentration [22]: 3310 nM; concentration [23]: 3070 nM |
| 150 | 254 | 185 | 137 | 94.7 | 581 | 185 | 3.98 | 28.6 | 2.3 | 3230 | 0.025 | 287 | 70.9 | 6.01 | 31.8 | 4.1 | 2670 | 5.44 | Nc1ccn([C@@H]2O[C@@](CO)(CCl)[C@@H](O)[C@H]2F)c(=O)n1 [ALS-8112] | > 100000 | clearance [19]: 28 mL/min/kg; Vd [20]: 3 L/kg; AUC(0-inf) [21]: 2980 ng·h/mL; Ratio (Cynomolgus monkey): 0.48; concentration [22]: 9920 nM; concentration [23]: 4060 nM |
| – | – | – | – | – | – | – | – | – | – | – | – | – | – | – | – | – | – | – | Nc1ccn([C@@H]2O[C@](CCl)(COP(=O)(O)OP(=O)(O)OP(=O)(O)O)[C@@H](O)C2(F)F)c(=O)n1 | – | inhibition [24]: 38% |
| – | – | – | – | – | – | – | – | – | – | – | – | – | – | – | – | – | – | – | Nc1ccn([C@@H]2O[C@](CCl)(COP(=O)(O)OP(=O)(O)OP(=O)(O)O)[C@@H](O)[C@@H]2O)c(=O)n1 | – | inhibition [25]: 6% |
| 260 | 679 | 1480 | – | – | – | – | – | – | – | – | – | – | – | – | – | – | – | – | CC(C)C(=O)OC[C@@]1(CCl)O[C@@H](n2ccc(N)nc2=O)[C@H](F)[C@@H]1OC(=O)C(C)C [LUMICITABINE] | > 100000 | – |
